Earlier results on 1 compound are cited in patent US20120142750A1, “INDOLEAMINE 2,3-DIOXYGENASE PATHWAYS IN THE GENERATION OF REGULATORY T CELLS” (Regents of the University of Minnesota, priority 2005, published 2012).

For the data set, the target named is IDO (Homo sapiens, UniProt P14902). Conditions: approximate literature value; cited from earlier work.
IDO, sequence (P14902 whole entry): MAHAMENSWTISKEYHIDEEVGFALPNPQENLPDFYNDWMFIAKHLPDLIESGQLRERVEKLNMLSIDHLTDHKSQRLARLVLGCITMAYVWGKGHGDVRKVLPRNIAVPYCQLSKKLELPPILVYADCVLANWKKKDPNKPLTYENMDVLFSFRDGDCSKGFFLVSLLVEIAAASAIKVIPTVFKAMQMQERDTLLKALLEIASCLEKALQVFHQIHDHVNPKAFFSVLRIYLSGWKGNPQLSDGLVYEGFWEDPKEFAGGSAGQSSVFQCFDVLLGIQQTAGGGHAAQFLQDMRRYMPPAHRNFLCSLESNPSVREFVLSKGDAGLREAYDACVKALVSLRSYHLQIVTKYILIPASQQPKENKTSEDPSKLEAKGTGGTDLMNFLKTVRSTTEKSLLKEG

As for `O=C1C2=C(Nc3cc([N+](=O)[O-])ccc3N2)OC1c1ccc(C2OC3=C(Nc4ccc([N+](=O)[O-])cc4N3)C2=O)cc1` (stereo not shown) [Inhibitor V], the 50% effective concentration (EC50) is about 1 µM.
